In general, IC50 refers to the concentration that inhibits the measured activity by half.

The text below walks through data of patent US10227323B2, “Glucosylceramide synthase inhibitors for the treatment of diseases” (BIOMARIN PHARMACEUTICAL INC., priority 2013, dated 2019).

One assay has as its target T1, GCS (Canis lupus familiaris, UniProt A0A8I3MXG6).
T1 sequence (A0A8I3MXG6 1-394): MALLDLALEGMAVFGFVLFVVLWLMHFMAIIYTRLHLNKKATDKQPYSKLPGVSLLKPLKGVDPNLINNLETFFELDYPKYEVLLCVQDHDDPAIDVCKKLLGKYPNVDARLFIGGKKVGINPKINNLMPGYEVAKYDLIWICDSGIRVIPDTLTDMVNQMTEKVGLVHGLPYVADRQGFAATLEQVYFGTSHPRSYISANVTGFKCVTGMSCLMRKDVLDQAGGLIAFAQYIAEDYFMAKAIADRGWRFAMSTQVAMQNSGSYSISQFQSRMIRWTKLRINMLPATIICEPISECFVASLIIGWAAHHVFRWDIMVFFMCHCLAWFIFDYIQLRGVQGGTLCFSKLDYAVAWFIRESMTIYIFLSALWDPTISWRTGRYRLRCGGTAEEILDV
Put plainly: Assay 1: GCS Enzymatic Assay (MDCK cell lysate, C6-NBD-Ceramide, LC/MS). Conditions: Table 1; MDCK cell lysate; read-out: IC50 (nM) generated from Assay 1. The class given is biochemical, canine. Here is the method: This assay was modified based on the study by Larsen et al. (J. Lipid Res. 2011, 53, 282). Madin-Darby canine kidney (MDCK) cell lysate was prepared using M-PER Mammalian Protein Extraction Reagent (Thermal Scientific) in the presence of a protease inhibitor cocktail (Roche). Protein concentration was determined using BCA assay kit (Pierce). Sixty micrograms of MDCK cell lysate was incubated with various concentrations of a compound described herein from 0.001 μM-10 μM, respectively, in 100 mM Tris buffer (pH 7.5) containing 10 mM MgCl2, 1 mM dithiothreitol, 1 mM EGTA, 2 mM NAD, 100 μM UDP-glucose, 10 μM C6-NBD-Ceramide (Matreya LLC, Pleasant Gap, Pa.), 35 μM dioleoylphosphatidylcholine and 5 μM sulfatide (Sigma) in a final reaction volume of 100 μL at 37° C. for 1 hour. 0.1% DMSO was used as mock treatment or control. The reaction was terminated by adding 100 μL acetonitrile solution and subjected to LC/MS analysis.
The quantitative analysis of NBD-Ceramide and glucosylceramide was performed on a Shimadzu ultra-fast liquid chromatography (Shimadzu, Japan) coupled with API 4000 triple quadrupole mass spectrometer (Applied Biosystems, Concord, Ontario, Canada). Sample separation was conducted on a Waters Xbridge™ BEH130 C18, 100 mm×4.6 mm i.d, 3.5 μm (Milford, Mass., USA). The mobile phase consisted of water and acetonitrile supplemented with 0.1% formic acid (v/v). The flow rate was 1.0 mL/min. The initial mobile phase was 20% acetonitrile and was ramped in a linear fashion to 50% acetonitrile in 0.4 min. From 0.4 to 1.5 min, the gradient was ramped to 98% acetonitrile, and then was held at […] until 8.0 min. Acetonitrile was reset to 20% in 1.5 min, and maintained until 10.0 min. The total run time was 10.0 min. The MS/MS detection was performed in ESI positive mode. The mass transition of NBD-Ceramide was m/z 576.36→558.40 under the collision energy of 15 V, and the mass transition of glucosylceramide was m/z 738.35→558.40 under 21V collision energy. The cell lysate was diluted with equal volume of acetonitrile. Aliquots of 50 μL diluted samples were added to 1.5 mL tubes, and 100 μL of acetonitrile containing internal standard (100 ng/mL tolbutamide) were added for protein precipitation. The mixture were vortexed and then centrifuged at 13000 rpm for 10 min. 70 μL of supernatant were mixed with 140 μL of H2O and the final solution were injected for LC/MS/MS analysis and IC50's and/or percent inhibitions calculated.
For the molecule `O=C(N[C@H](CN1CCCC1)[C@H](O)c1ccc2c(c1)OCCO2)C(F)(F)c1cc2cc(F)ccc2s1` [Compound 28, N-((1R,2R)-1-(2,3-dihydrobenzo[b][1,4]dioxin-6-yl)-1-hydroxy-3-(pyrrolidin-1-yl)propan-2-yl)-2,2-difluoro-2-(5-fluorobenzo[b]thiophen-2-yl)acetamide], the IC50 was less than 50 nM.

As for `O=C(N[C@H](CN1CCCC1)[C@H](O)c1ccc2c(c1)OCCO2)C(F)(F)c1cc2cc(C(F)(F)F)ccc2o1` [Compound 30, N-((1R,2R)-1-(2,3-dihydrobenzo[b][1,4]dioxin-6-yl)-1-hydroxy-3-(pyrrolidin-1-yl)propan-2-yl)-2,2-difluoro-2-(5-(trifluoromethyl)benzofuran-2-yl)acetamide], the half-maximal inhibitory concentration (IC50) was less than 50 nM.

With `O=C(N[C@H](CN1CCCC1)[C@H](O)c1ccc2c(c1)OCCO2)C(F)(F)c1cc2cc(Br)ccc2o1` [Compound 31, 2-(5-bromobenzofuran-2-yl)-N-((1R,2R)-1-(2,3-dihydrobenzo[b][1,4]dioxin-6-yl)-1-hydroxy-3-(pyrrolidin-1-yl)propan-2-yl)-2,2-difluoroacetamide], the IC50 is less than 50 nM.

`O=C(N[C@H](CN1CCC1)[C@H](O)c1ccc2c(c1)OCCO2)C(F)(F)c1cc2cc(Cl)ccc2o1` [Compound 32D, N-((1R,2R)-3-(azetidin-1-yl)-1-(2,3-dihydrobenzo[b][1,4]dioxin-6-yl)-1-hydroxypropan-2-yl)-2-(5-chlorobenzofuran-2-yl)-2,2-difluoroacetamide]: the IC50 was less than 50 nM.

With `C[C@@H]1CCCN1C[C@@H](NC(=O)C(F)(F)c1cc2cc(Cl)ccc2o1)[C@H](O)c1ccc2c(c1)OCCO2` [Compound 39, 2-(5-chlorobenzofuran-2-yl)-N-((1R,2R)-1-(2,3-dihydrobenzo[b][1,4]dioxin-6-yl)-1-hydroxy-3-((1R)-2-methylpyrrolidin-1-yl)propan-2-yl)-2,2-difluoroacetamide], the IC50 was less than 50 nM.

Regarding `C[C@H]1CCCN1C[C@@H](NC(=O)C(F)(F)c1cc2cc(Cl)ccc2o1)[C@H](O)c1ccc2c(c1)OCCO2` [Compound 40, 2-(5-chlorobenzofuran-2-yl)-N-((1R,2R)-1-(2,3-dihydrobenzo[b][1,4]dioxin-6-yl)-1-hydroxy-3-((S)-2-methylpyrrolidin-1-yl)propan-2-yl)-2,2-difluoroacetamide], the IC50 is less than 50 nM.

Consider `O=C(N[C@H](CN1CCCC1)[C@H](O)c1ccc(OC2CC2)c(Cl)c1)C(F)(F)c1cc2cc(Cl)ccc2o1` [Compound 44, N-((1R,2R)-1-(3-chloro-4-cyclopropoxyphenyl)-1-hydroxy-3-(pyrrolidin-1-yl)propan-2-yl)-2-(5-chlorobenzofuran-2-yl)-2,2-difluoroacetamide], for which the IC50 was less than 50 nM.

Still in this assay, the particulars now being: Table 1; values marked *; MDCK cell lysate.
On to `O=C(N[C@H](CN1CCC1)[C@@H](O)c1ccc2c(c1)OCCO2)C(F)(F)c1cc2cc(Cl)ccc2o1` [Compound 32C, N-((1S,2R)-3-(azetidin-1-yl)-1-(2,3-dihydrobenzo[b][1,4]dioxin-6-yl)-1-hydroxypropan-2-yl)-2-(5-chlorobenzofuran-2-yl)-2,2-difluoroacetamide], for which the “% inhibition generated from Assay 1” value was “B* (the compound had a % inhibition of greater than or equal to about 3% but less than about 50%)”.

On to `O=C(N[C@H](CN1CCCC1)[C@H](O)c1cc2c(cc1F)OCCO2)C(F)(F)c1cc2cc(Cl)ccc2o1` [Compound 33, 2-(5-chlorobenzofuran-2-yl)-2,2-difluoro-N-((1R,2R)-1-(7-fluoro-2,3-dihydrobenzo[b][1,4]dioxin-6-yl)-1-hydroxy-3-(pyrrolidin-1-yl)propan-2-yl)acetamide], for which the “% inhibition generated from Assay 1” value was “B* (the compound had a % inhibition of greater than or equal to about 3% but less than about 50%)”.

In the case of `O=C(N[C@H](CN1CCCC1)[C@@H](O)c1cc2c(cc1F)OCCO2)C(F)(F)c1cc2cc(Cl)ccc2o1` [Compound 33A, 2-(5-chlorobenzofuran-2-yl)-2,2-difluoro-N-((1S,2R)-1-(7-fluoro-2,3-dihydrobenzo[b][1,4]dioxin-6-yl)-1-hydroxy-3-(pyrrolidin-1-yl)propan-2-yl)acetamide], the “% inhibition generated from Assay 1” value is given as “B* (the compound had a % inhibition of greater than or equal to about 3% but less than about 50%)”.

Regarding `O=C(N[C@H](CN1CCCC1)[C@H](O)c1ccc2ncccc2c1)C(F)(F)c1cc2cc(Cl)ccc2o1` [Compound 34, 2-(5-chlorobenzofuran-2-yl)-2,2-difluoro-N-((1R,2R)-1-hydroxy-3-(pyrrolidin-1-yl)-1-(quinolin-6-yl)propan-2-yl)acetamide], the “% inhibition generated from Assay 1” value is “A* (the compound had a % inhibition of a percent inhibition of greater than or equal to about 50%)”.

As to `O=C(N[C@H](CN1CCCC1)[C@@H](O)c1ccc2ncccc2c1)C(F)(F)c1cc2cc(Cl)ccc2o1` [Compound 34G, 2-(5-chlorobenzofuran-2-yl)-2,2-difluoro-N-((1S,2R)-1-hydroxy-3-(pyrrolidin-1-yl)-1-(quinolin-6-yl)propan-2-yl)acetamide], the “% inhibition generated from Assay 1” value is listed as “B* (the compound had a % inhibition of greater than or equal to about 3% but less than about 50%)”.

`CC1(C)CCN(C[C@@H](NC(=O)C(F)(F)c2cc3cc(Cl)ccc3o2)[C@@H](O)c2ccc3c(c2)OCCO3)C1` [Compound 36C, 2-(5-chlorobenzofuran-2-yl)-N-((1S,2R)-1-(2,3-dihydrobenzo[b][1,4]dioxin-6-yl)-3-(3,3-dimethylpyrrolidin-1-yl)-1-hydroxypropan-2-yl)-2,2-difluoroacetamide]: the “% inhibition generated from Assay 1” value is reported as “B* (the compound had a % inhibition of greater than or equal to about 3% but less than about 50%)”.

For `O=C(N[C@H](CN1CCCC1)[C@H](O)c1ccc(OC(F)(F)F)cc1)C(F)(F)c1cc2cc(Cl)ccc2o1` [Compound 37, 2-(5-chlorobenzofuran-2-yl)-2,2-difluoro-N-((1R,2R)-1-hydroxy-3-(pyrrolidin-1-yl)-1-(4-(trifluoromethoxy)phenyl)propan-2-yl)acetamide], the “% inhibition generated from Assay 1” value is reported as “B* (the compound had a % inhibition of greater than or equal to about 3% but less than about 50%)”.

For `O=C(N[C@H](CN1CCCC1)[C@@H](O)c1ccc(OC(F)(F)F)cc1)C(F)(F)c1cc2cc(Cl)ccc2o1` [Compound 37G, 2-(5-chlorobenzofuran-2-yl)-2,2-difluoro-N-((1S,2R)-1-hydroxy-3-(pyrrolidin-1-yl)-1-(4-(trifluoromethoxy)phenyl)propan-2-yl)acetamide], the “% inhibition generated from Assay 1” value is recorded as “B* (the compound had a % inhibition of greater than or equal to about 3% but less than about 50%)”.

With `O=C(N[C@H](CN1CC[C@H](F)C1)[C@H](O)c1ccc2c(c1)OCCO2)C(F)(F)c1cc2cc(Cl)ccc2o1` [Compound 38, 2-(5-chlorobenzofuran-2-yl)-N-((1R,2R)-1-(2,3-dihydrobenzo[b][1,4]dioxin-6-yl)-3-((S)-3-fluoropyrrolidin-1-yl)-1-hydroxypropan-2-yl)-2,2-difluoroacetamide], the “% inhibition generated from Assay 1” value is “B* (the compound had a % inhibition of greater than or equal to about 3% but less than about 50%)”.

In the case of `O=C(N[C@H](CN1CCC(F)(F)C1)[C@H](O)c1ccc2c(c1)OCCO2)C(F)(F)c1cc2cc(Cl)ccc2o1` [Compound 41, 2-(5-chlorobenzofuran-2-yl)-N-((1R,2R)-3-(3,3-difluoropyrrolidin-1-yl)-1-(2,3-dihydrobenzo[b][1,4]dioxin-6-yl)-1-hydroxypropan-2-yl)-2,2-difluoroacetamide], the “% inhibition generated from Assay 1” value is on record as “B* (the compound had a % inhibition of greater than or equal to about 3% but less than about 50%)”.
